This note sets out measurements from patent US20260139017A1, “COMPOSITIONS AND METHODS USING REELIN IN ALZHEIMER'S DISEASE” (The General Hospital Corporation, priority 2022, published 2026).

Assay [1] in a line: Heparin HPLC, peak retention time in KCl elution. The format is binding. The settings on record: isocratic 1M KCl elution, long and short peptides. The method, then: […] 50 μl of 0.3 μg/μL uncleaved or cleaved WT Reelin peptide was used at 0.3 ml/min in 0.15MKCl, 10 mM PBS. 0-13.5 min: 0.15M KCl to load sample, 13.5-14.5 min: ramp to 0.5M KCl, 14.5-24.5 min: 0.5-1M KCl gradient (ramp), 24.5-45 min: 1M KCl (isocratic elution), 45-55 min: 1M KCl at 0.6 ml/min (wash), 55.0-56.0 min: ramp to 0.15M KCl at 0.3 ml/min, 56.0-59.0 min: 0.15M KCl (reset column). Fluorescence Intensities were measured at an excitation wavelength of 260 nm and emission wavelength of 290 nm, based on fluorescence properties of aromatic amino acids. To assess fluorescence properties of peptides, 15 ul of ˜0.6 ug/mL of peptide was diluted in 500 μL of 0.15MKCl, 10 mM PBS, and peak excitation and emission of peptides was calculated from the 2D graphical data.
The column chromatography method was adapted from previous research from the laboratory (2). Based on the column chromatography data, the initial protocol used a NaCl gradient from 0-1 M and a 5M salt wash to reset the HPLC column. However, the high salt gradient was corrosive to the HPLC machine parts. Therefore, KCl was considered because the […]. A lower molar concentration of a buffer with KCl could be used to disrupt heparin—Reelin CTR interactions compared to NaCl to help keep the HPLC pumps free of residual salts and potential corrosion. Since a lower concentration of salt was used, the amount of time needed at an […] hold of 1M KCl was extended until the peptide signal could not be detected before the column was equilibrated for the next sample.

The nature of assay [2]: Bio-layer interferometry (BLI) of Fc-fusion CTR-RELN on heparin coated biosensor. The format is binding. Conditions: Fc-fusion (short, furin-cleaved) CTR. As for the experimental part:
We used Fc-fusion Reelin CTR peptides since peptides alone would be smaller than the limit of detection in this experimental design. To assess heparin—Fc-Reelin interaction, the octet system (bio-layer interferometry) was used to assess heparin-protein kinetics. 50 μg/mL biotinylated heparin was immobilized on the biosensor tip surface for 300 sec on preconditioned biosensors. This was followed by quenching with biocytin at 50 μg/ml, baseline buffer diluent for 120 sec, 200 nM of analyte (Fc-fusion proteins) for 120 sec, and disassociation in assay buffer for 120 sec.
The experimental data were fit with the 1:1 binding model and analyzed with global fitting using Octet Data Analysis software to calculate KD.

In the next assay the target is T1, Aβ42 (Homo sapiens, UniProt P05067).
T1 construct: SensoLyte ThT O-Amyloid (1-42) Aggregation kit
T1 sequence (P05067 672-713 limits assumed): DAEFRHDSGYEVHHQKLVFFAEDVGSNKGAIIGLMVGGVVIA
The assay is described as follows: Thioflavin T (ThT) Aβ aggregation assay. It counts as biochemical. Conditions: Aβ42 55 μM, 10 μM peptide, vs Aβ alone. As for the experimental part: Therefore, the ThT assay can be used to quantify AB aggregation using previously developed methods (40).
We incubated CTR-RELN with Aβ and monitored aggregation using a ThioflavinT fluorescence assay normalized to the maximum ThT emission of Aβ only. We also assayed Aβ in the presence of morin, a known inhibitor (41), as a […]. Long and short WT and H3447R RELN CTR peptides were included to better understand the potential role of the H3447R mutation in amyloid pathology (FIGS. 14 and 15. Negative controls included long and short RELN CTR peptides with neutrally charged AAs (histidines) in place of basic AAs in the alpha- and beta-GAG binding sites.
A Thioflavin T (ThT) assay was also performed using synthetic Reelin peptides to assess the differential effects of these proteins on Aβ42 aggregation in vitro using Thioflavin T (SensoLyte ThT O-Amyloid (1-42) Aggregation kit, catalog no. ΔS-72214). Aβ42 was added to a final concentration of 55 μM in solutions of 10 μM of Reelin peptide variants in a transparent, no-binding 96-well plate. Samples were then mixed with 2 mM Thioflavin T dye and fluorescence was read at excitation wavelength/emission wavelength (Ex/Em)=440/484 nm at intermittent time intervals over 2 h. The plate was kept at 37° C. with 15 s shaking between reads. […] In general, it appears that the RELN Cterm domain is highly unstructured. […] If the mini-RELN includes the C-term domain only without a receptor binding domain then the protection will not involve signaling, but will still involve direct interactions with tau. If the mini-RELN includes the C-term domain and the receptor binding domain, it will have at least two protective mechanisms, namely RELN signaling and direct interactions with tau.

Consider “RKQNYMMNFSRQHGLRRFYNRRRRSLRRYP [CTR-RELN H3447R]”, for which the figures for the “peak retention time on heparin HPLC” value in assay [1] (listed as H3447R), in assay [1] (listed as H3447R Reelin) and in assay [1] (listed as RELN H3447R) were “increased later peak retention times”, “significantly later peak retention time” and “delayed peak times”, respectively. Moreover, the “interaction/affinity with heparin relative to WT” value in assay [2] (listed as H3447R) was ~2 fold; in assay [2] (listed as RELN H3447R), “about 2 fold”. Also, the “Aβ aggregation (ThT fluorescence)” value at Aβ42 (listed as COLBOS variant) is on record as “enhanced this effect”; on Aβ42 (listed as H3447R), “did not significantly affect Aβ aggregation compared to WT”; on Aβ42 (listed as RELN H3447R) it was “similarly effective at inhibiting ThT aggregation as WT”.
